According to patent US9302988B2, “Fluoromethyl-substituted pyrrole carboxamides” (GRÜNENTHAL GMBH, priority 2012, dated 2016):

What follows are molecules tested against T1, Human CaV2.2 channels (Homo sapiens, UniProt Q00975) (assay: Fluorescent assay for CaV2.2 channels using potassium depolarization to induce channel opening (FLIPR, Fluo-4)). Conditions: 3 μM test compound, 30 mM KCl, HEK293 cells stably expressing human CaV2.2; read-out: %-Inhib (CaV2.2) @3 μM @30 mM KCl.
T1 construct: expressed in transfected cells
T1 sequence (Q00975 whole entry): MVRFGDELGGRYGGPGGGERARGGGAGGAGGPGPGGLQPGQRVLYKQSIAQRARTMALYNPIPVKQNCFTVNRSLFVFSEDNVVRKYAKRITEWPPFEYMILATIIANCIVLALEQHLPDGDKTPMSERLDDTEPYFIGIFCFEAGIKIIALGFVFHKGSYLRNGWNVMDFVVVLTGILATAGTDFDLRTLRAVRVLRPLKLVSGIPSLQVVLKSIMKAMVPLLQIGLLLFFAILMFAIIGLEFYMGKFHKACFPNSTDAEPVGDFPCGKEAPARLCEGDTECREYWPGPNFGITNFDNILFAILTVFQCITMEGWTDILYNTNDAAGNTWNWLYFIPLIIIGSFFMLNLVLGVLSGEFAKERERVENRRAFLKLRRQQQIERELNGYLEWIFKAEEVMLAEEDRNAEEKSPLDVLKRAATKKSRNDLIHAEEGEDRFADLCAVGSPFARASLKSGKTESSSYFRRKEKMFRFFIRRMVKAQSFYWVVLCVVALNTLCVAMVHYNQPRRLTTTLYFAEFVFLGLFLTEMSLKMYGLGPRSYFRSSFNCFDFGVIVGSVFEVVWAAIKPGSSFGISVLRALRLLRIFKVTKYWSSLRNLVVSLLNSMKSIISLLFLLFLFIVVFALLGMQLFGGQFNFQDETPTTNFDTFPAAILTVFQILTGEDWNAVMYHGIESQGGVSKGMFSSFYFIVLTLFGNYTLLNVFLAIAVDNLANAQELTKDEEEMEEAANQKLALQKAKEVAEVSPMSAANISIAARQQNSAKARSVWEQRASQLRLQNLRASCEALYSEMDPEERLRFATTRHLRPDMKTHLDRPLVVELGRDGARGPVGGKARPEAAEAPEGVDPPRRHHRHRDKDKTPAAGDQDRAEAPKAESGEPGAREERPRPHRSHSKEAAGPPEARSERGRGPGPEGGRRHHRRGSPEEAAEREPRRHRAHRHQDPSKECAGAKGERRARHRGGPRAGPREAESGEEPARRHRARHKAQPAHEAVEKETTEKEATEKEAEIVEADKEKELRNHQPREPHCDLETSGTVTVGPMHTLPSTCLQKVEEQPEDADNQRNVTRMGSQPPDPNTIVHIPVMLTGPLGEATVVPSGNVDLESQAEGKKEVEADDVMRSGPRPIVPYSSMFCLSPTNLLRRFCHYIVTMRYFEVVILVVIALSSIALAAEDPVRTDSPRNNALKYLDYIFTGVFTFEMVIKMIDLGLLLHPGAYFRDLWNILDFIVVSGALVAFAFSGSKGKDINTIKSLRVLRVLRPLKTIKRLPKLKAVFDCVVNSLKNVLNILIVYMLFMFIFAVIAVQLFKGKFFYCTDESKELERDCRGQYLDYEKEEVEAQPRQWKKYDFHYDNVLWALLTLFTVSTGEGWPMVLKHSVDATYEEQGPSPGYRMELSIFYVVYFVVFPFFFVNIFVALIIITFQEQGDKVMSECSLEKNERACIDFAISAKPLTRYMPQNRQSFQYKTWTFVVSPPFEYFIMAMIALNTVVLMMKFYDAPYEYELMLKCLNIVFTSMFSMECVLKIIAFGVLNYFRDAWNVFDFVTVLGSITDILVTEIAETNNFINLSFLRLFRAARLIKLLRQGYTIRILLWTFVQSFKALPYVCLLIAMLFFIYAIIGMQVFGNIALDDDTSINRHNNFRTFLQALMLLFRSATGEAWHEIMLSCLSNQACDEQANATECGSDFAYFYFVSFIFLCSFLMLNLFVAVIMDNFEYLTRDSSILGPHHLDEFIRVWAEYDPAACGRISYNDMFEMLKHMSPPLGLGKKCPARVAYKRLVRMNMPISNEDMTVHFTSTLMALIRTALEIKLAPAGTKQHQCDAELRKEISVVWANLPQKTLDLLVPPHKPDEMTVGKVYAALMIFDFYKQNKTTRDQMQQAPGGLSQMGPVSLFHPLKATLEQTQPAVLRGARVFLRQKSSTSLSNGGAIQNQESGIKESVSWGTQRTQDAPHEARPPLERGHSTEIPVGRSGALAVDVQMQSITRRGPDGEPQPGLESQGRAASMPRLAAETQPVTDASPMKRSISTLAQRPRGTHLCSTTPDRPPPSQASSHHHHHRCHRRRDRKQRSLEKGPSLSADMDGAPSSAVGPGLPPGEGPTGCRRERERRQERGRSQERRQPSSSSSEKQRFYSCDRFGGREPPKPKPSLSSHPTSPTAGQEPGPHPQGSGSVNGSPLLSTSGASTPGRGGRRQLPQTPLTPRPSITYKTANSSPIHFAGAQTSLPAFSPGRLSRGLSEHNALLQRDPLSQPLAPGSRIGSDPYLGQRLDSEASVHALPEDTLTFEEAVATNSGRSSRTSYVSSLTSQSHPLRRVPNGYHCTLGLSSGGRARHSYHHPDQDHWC
T1 sequence (P54289 25-1103, further chain): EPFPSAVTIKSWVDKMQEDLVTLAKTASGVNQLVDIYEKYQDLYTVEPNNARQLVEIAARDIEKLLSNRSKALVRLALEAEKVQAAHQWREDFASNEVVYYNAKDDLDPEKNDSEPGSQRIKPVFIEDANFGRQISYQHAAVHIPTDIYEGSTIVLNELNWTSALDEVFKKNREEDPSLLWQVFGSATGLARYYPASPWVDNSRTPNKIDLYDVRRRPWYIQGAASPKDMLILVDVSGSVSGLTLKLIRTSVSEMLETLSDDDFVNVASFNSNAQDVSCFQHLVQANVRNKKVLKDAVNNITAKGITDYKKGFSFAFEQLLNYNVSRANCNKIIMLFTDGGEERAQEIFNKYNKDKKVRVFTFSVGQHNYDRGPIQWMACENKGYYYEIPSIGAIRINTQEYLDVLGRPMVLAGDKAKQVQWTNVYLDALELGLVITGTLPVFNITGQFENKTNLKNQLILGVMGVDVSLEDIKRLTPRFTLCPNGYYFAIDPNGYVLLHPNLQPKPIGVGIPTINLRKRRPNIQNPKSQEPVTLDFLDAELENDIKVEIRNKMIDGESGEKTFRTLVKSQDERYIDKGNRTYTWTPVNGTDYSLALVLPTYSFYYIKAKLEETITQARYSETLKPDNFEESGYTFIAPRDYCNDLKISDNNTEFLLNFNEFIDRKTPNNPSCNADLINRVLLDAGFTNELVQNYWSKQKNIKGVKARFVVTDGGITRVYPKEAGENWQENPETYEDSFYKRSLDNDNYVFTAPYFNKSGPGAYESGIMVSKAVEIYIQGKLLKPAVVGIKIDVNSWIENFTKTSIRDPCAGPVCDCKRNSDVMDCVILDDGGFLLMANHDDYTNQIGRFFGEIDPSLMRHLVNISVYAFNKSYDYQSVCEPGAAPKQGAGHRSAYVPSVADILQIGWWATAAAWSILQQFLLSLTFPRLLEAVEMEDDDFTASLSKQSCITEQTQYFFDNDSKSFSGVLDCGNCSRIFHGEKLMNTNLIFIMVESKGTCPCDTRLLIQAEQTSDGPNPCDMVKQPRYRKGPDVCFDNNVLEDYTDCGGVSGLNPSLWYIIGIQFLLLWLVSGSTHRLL
T1 sequence (P54284 whole entry, further chain): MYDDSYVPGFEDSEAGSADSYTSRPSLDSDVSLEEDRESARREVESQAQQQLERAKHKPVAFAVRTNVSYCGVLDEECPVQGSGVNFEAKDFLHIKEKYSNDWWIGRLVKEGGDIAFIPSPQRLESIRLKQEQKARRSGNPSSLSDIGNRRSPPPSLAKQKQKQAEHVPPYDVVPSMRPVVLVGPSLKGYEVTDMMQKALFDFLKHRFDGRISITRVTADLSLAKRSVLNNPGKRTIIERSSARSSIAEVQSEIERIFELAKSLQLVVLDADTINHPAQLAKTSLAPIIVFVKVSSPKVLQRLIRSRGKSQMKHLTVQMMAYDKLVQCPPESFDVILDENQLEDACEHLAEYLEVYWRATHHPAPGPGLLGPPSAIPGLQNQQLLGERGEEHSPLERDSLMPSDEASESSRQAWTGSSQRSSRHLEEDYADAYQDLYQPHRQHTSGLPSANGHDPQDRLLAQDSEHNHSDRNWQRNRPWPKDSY
Assay type: cell-based
Outline: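 HEK293 cells stably co-expressing CaV2.2 with α2δ and β subunits plus Kir2.3 were Fluo-4 loaded, then preincubated 15 min at 25 °C with compound in 30 mM KCl buffer, pH 7.4. Depolarization was by adding buffer containing 210 mM KCl. Inhibition was taken from baseline-normalized peak fluorescence amplitude (ex 480/em 535 nm).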

**Q.** How did the inhibition at 3 µM turn out when `Cc1c(-c2ccc(Cl)cc2F)c(C(=O)N2CC(O)C2)n(Cc2ccccc2)c1C(F)(F)F` [SC-154, [1-Benzyl-3-(4-chloro-2-fluoro-phenyl)-4-methyl-5-(trifluoromethyl)-1H-pyrrol-2-yl]-(3-hydroxy-azetidin-1-yl)-methanone] was run?
**A.** Its inhibition at 3 µM is 75 to 95%.

**Q.** Which inhibition at 3 µM does the source give for `CN(CCC(C)(C)O)C(=O)c1c(-c2ccc(Cl)cc2)cc(C(F)(F)F)n1Cc1ccccc1` [SC-176, 1-Benzyl-3-(4-chlorophenyl)-N-(3-hydroxy-3-methyl-butyl)-N-methyl-5-(trifluoromethyl)-1H-pyrrole-2-carboxylic acid amide] here?
**A.** Its inhibition at 3 µM is greater than 95%.

**Q.** For `CN(CCS(C)(=O)=O)C(=O)c1c(-c2ccc(Cl)cc2)cc(C(F)(F)F)n1Cc1ccccc1` [SC-67, 1-Benzyl-3-(4-chlorophenyl)-N-methyl-N-(2-methylsulfonyl-ethyl)-5-(trifluoromethyl)-1H-pyrrole-2-carboxylic acid amide], which inhibition at 3 µM is on record?
**A.** The inhibition at 3 µM was greater than 95%.

**Q.** How did the inhibition at 3 µM turn out when `Cc1c(-c2ccc(Cl)cc2)c(C(=O)N(C)C(C)(C)CCO)n(Cc2ccccc2)c1C(F)(F)F` [SC-122, 1-Benzyl-3-(4-chlorophenyl)-N-(3-hydroxy-1,1-dimethyl-propyl)-N,4-dimethyl-5-(trifluoromethyl)-1H-pyrrole-2-carboxylic acid amide] was run?
**A.** Its inhibition at 3 µM is greater than 95%.

**Q.** With `Cc1c(-c2ccc(Cl)cc2)c(C(=O)N(C)Cc2nccn2C)n(Cc2ccccc2)c1C(F)(F)F` [SC-148, 1-Benzyl-3-(4-chlorophenyl)-N,4-dimethyl-N-[(1-methyl-1H-imidazol-2-yl)-methyl]-5-(trifluoromethyl)-1H-pyrrole-2-carboxylic acid amide] as the molecule, how does the inhibition at 3 µM read?
**A.** The inhibition at 3 µM was greater than 95%.

**Q.** How did the inhibition at 3 µM turn out when `Cc1c(-c2ccc(Cl)cc2)c(C(=O)N(C)C(C)C)n(Cc2ccccc2)c1C(F)(F)F` [SC-149, 1-Benzyl-3-(4-chlorophenyl)-N-isopropyl-N,4-dimethyl-5-(trifluoromethyl)-1H-pyrrole-2-carboxylic acid amide] was run?
**A.** Its inhibition at 3 µM is greater than 95%.

**Q.** How did the inhibition at 3 µM turn out when `Cc1c(-c2ccc(F)cc2)c(C(=O)N(C)C2CCOCC2)n(Cc2ccccc2)c1C(F)(F)F` [SC-220, 1-Benzyl-3-(4-fluorophenyl)-N,4-dimethyl-N-tetrahydro-pyran-4-yl-5-(trifluoromethyl)-1H-pyrrole-2-carboxylic acid amide] was run?
**A.** The inhibition at 3 µM was greater than 95%.

**Q.** For `Cc1c(-c2ccc(OC(F)(F)F)cc2F)c(C(=O)N2CCOCC2)n(Cc2ccccc2)c1C(F)(F)F` [SC-262, (1-benzyl-3-(2-fluoro-4-(trifluoromethoxy)phenyl)-4-methyl-5-(trifluoromethyl)-1H-pyrrol-2-yl)(morpholino)methanone], which inhibition at 3 µM is on record?
**A.** The inhibition at 3 µM was 75 to 95%.

**Q.** For `Cc1c(-c2ccc(F)cc2)c(C(=O)N2CC(F)(F)C2)n(Cc2ccccc2)c1C(F)(F)F` [SC-95, [1-Benzyl-3-(4-fluorophenyl)-4-methyl-5-(trifluoromethyl)-1H-pyrrol-2-yl]-(3,3-difluoro-azetidin-1-yl)-methanone], which inhibition at 3 µM is on record?
**A.** Its inhibition at 3 µM is 75 to 95%.

**Q.** `Cc1c(-c2ccc(Cl)c(F)c2)c(C(=O)N(C)C(C)(C)CO)n(Cc2ccccc2)c1C(F)(F)F` [SC-248, 1-Benzyl-3-(4-chloro-3-fluoro-phenyl)-N-(2-hydroxy-1,1-dimethyl-ethyl)-N,4-dimethyl-5-(trifluoromethyl)-1H-pyrrole-2-carboxylic acid amide] was tested. Which inhibition at 3 µM did it give?
**A.** Its inhibition at 3 µM is 75 to 95%.

**Q.** With `Cc1c(-c2ccc(Cl)cc2)c(C(=O)N(C)Cc2cnc(N(C)C)nc2)n(Cc2ccccc2)c1C(F)(F)F` [SC-152, 1-Benzyl-3-(4-chlorophenyl)-N-[(2-dimethylamino-pyrimidin-5-yl)-methyl]-N,4-dimethyl-5-(trifluoromethyl)-1H-pyrrole-2-carboxylic acid amide] as the molecule, how does the inhibition at 3 µM read?
**A.** The inhibition at 3 µM was greater than 95%.

**Q.** Which inhibition at 3 µM does the source give for `CN(CC(C)(C)O)C(=O)c1c(-c2ccc(Cl)cc2F)cc(C(F)(F)F)n1Cc1ccccc1` [SC-87, 1-Benzyl-3-(4-chloro-2-fluoro-phenyl)-N-(2-hydroxy-2-methyl-propyl)-N-methyl-5-(trifluoromethyl)-1H-pyrrole-2-carboxylic acid amide] here?
**A.** The inhibition at 3 µM was greater than 95%.

**Q.** For `Cc1c(-c2ccc(Cl)cc2F)c(C(=O)N(C)CC(C)(C)O)n(Cc2ccccc2)c1C(F)(F)F` [SC-58, 1-Benzyl-3-(4-chloro-2-fluoro-phenyl)-N-(2-hydroxy-2-methyl-propyl)-N,4-dimethyl-5-(trifluoromethyl)-1H-pyrrole-2-carboxylic acid amide], which inhibition at 3 µM is on record?
**A.** The inhibition at 3 µM was greater than 95%.

**Q.** For `Cc1c(-c2ccc(Cl)cc2)c(C(=O)N(C)CC2CCOC2)n(Cc2ccccc2)c1C(F)(F)F` (stereo not drawn) [SC-121, 1-Benzyl-3-(4-chlorophenyl)-N,4-dimethyl-N-(tetrahydro-furan-3-yl-methyl)-5-(trifluoromethyl)-1H-pyrrole-2-carboxylic acid amide], which inhibition at 3 µM is on record?
**A.** The inhibition at 3 µM was greater than 95%.

**Q.** Which inhibition at 3 µM does the source give for `Cc1c(-c2ccc(F)cc2)c(C(=O)N(C)C(C)(C)CO)n(Cc2ccccc2)c1C(F)(F)F` [SC-222, 1-Benzyl-3-(4-fluorophenyl)-N-(2-hydroxy-1,1-dimethyl-ethyl)-N,4-dimethyl-5-(trifluoromethyl)-1H-pyrrole-2-carboxylic acid amide] here?
**A.** Its inhibition at 3 µM is greater than 95%.

**Q.** `Cc1c(-c2ccc(Cl)cc2)c(C(=O)N(C)C2CCS(=O)(=O)C2)n(Cc2ccccc2)c1C(F)(F)F` (stereo not drawn) [SC-63, 1-Benzyl-3-(4-chlorophenyl)-N-(1,1-dioxo-thiolan-3-yl)-N,4-dimethyl-5-(trifluoromethyl)-1H-pyrrole-2-carboxylic acid amide] was tested. Which inhibition at 3 µM did it give?
**A.** The inhibition at 3 µM was greater than 95%.

**Q.** `O=C(c1c(-c2ccc(Cl)cc2)cc(C(F)(F)F)n1Cc1ccccc1)N1CCn2ccnc2C1` [SC-217, [1-Benzyl-3-(4-chlorophenyl)-5-(trifluoromethyl)-1H-pyrrol-2-yl]-(5,6,7,8-tetrahydro-imidazo[1,2-a]pyrazin-7-yl)-methanone] was tested. Which inhibition at 3 µM did it give?
**A.** The inhibition at 3 µM was greater than 95%.

**Q.** With `Cc1c(-c2ccc(Cl)cc2)c(C(=O)N(C)C2CCS(=O)(=O)CC2)n(Cc2ccccc2)c1C(F)(F)F` [SC-131, 1-Benzyl-3-(4-chlorophenyl)-N-(1,1-dioxo-thian-4-yl)-N,4-dimethyl-5-(trifluoromethyl)-1H-pyrrole-2-carboxylic acid amide] as the molecule, how does the inhibition at 3 µM read?
**A.** Its inhibition at 3 µM is greater than 95%.

**Q.** With `COc1cccc(-n2c(C(=O)N3CC(F)(F)C3)c(-c3ccc(Cl)cc3)c(C)c2C(F)(F)F)c1` [SC-32, [3-(4-Chlorophenyl)-1-(3-methoxyphenyl)-4-methyl-5-(trifluoromethyl)-1H-pyrrol-2-yl]-(3,3-difluoro-azetidin-1-yl)-methanone] as the molecule, how does the inhibition at 3 µM read?
**A.** The inhibition at 3 µM was 75 to 95%.

**Q.** With `Cc1c(-c2ccc(Cl)cc2)c(C(=O)N2CCOCC2)n(CCOc2ccc(F)cc2)c1C(F)(F)F` [SC-51, [3-(4-Chlorophenyl)-1-[2-(4-fluoro-phenoxy)-ethyl]-4-methyl-5-(trifluoromethyl)-1H-pyrrol-2-yl]-morpholin-4-yl-methanone] as the molecule, how does the inhibition at 3 µM read?
**A.** The inhibition at 3 µM was greater than 95%.

**Q.** For `Cc1c(-c2ccc(Cl)cc2F)c(C(=O)N2CCS(=O)(=O)C(C)(C)C2)n(Cc2ccccc2)c1C(F)(F)F` [SC-170, [1-Benzyl-3-(4-chloro-2-fluoro-phenyl)-4-methyl-5-(trifluoromethyl)-1H-pyrrol-2-yl]-(2,2-dimethyl-1,1-dioxo-[1,4]thiazinan-4-yl)-methanone], which inhibition at 3 µM is on record?
**A.** Its inhibition at 3 µM is greater than 95%.

**Q.** `CN(C(=O)c1c(-c2ccc(Cl)cc2)cc(C(F)(F)F)n1Cc1ccccc1)C1CCS(=O)(=O)C1` (stereo not drawn) [SC-83, 1-Benzyl-3-(4-chlorophenyl)-N-(1,1-dioxo-thiolan-3-yl)-N-methyl-5-(trifluoromethyl)-1H-pyrrole-2-carboxylic acid amide] was tested. Which inhibition at 3 µM did it give?
**A.** The inhibition at 3 µM was greater than 95%.

**Q.** Which inhibition at 3 µM does the source give for `Cc1c(-c2ccc(Cl)cc2)c(C(=O)N2CC[S+]([O-])CC2)n(Cc2ccccc2)c1C(F)(F)F` [SC-19, [1-Benzyl-3-(4-chlorophenyl)-4-methyl-5-(trifluoromethyl)-1H-pyrrol-2-yl]-(1-oxo-[1,4]thiazinan-4-yl)-methanone] here?
**A.** Its inhibition at 3 µM is greater than 95%.

**Q.** For `CN(CC(C)(C)CN)C(=O)c1c(-c2ccc(Cl)cc2)cc(C(F)(F)F)n1Cc1ccccc1` [SC-188, N-(3-Amino-2,2-dimethyl-propyl)-1-benzyl-3-(4-chlorophenyl)-N-methyl-5-(trifluoromethyl)-1H-pyrrole-2-carboxylic acid amide], which inhibition at 3 µM is on record?
**A.** Its inhibition at 3 µM is 75 to 95%.

**Q.** For `Cc1c(-c2ccc(OC(F)(F)F)cc2)c(C(=O)N(C)CC(C)(C)C)n(Cc2ccccc2)c1C(F)(F)F` [SC-240, 1-Benzyl-N-(2,2-dimethyl-propyl)-N,4-dimethyl-5-(trifluoromethyl)-3-[4-(trifluoromethyloxy)-phenyl]-1H-pyrrole-2-carboxylic acid amide], which inhibition at 3 µM is on record?
**A.** Its inhibition at 3 µM is 30 to 40%.

**Q.** How did the inhibition at 3 µM turn out when `Cc1c(-c2ccc(OC(F)(F)F)cc2)c(C(=O)N(C)CCS(C)(=O)=O)n(Cc2ccccc2)c1C(F)(F)F` [SC-236, 1-Benzyl-N,4-dimethyl-N-(2-methylsulfonyl-ethyl)-5-(trifluoromethyl)-3-[4-(trifluoromethyloxy)-phenyl]-1H-pyrrole-2-carboxylic acid amide] was run?
**A.** Its inhibition at 3 µM is greater than 95%.

**Q.** `CN(CCS(C)(=O)=O)C(=O)c1c(-c2ccc(Cl)cc2)cc(C(F)(F)F)n1Cc1cccc(Cl)c1` [SC-69, 3-(4-Chlorophenyl)-1-[(3-chlorophenyl)-methyl]-N-methyl-N-(2-methylsulfonyl-ethyl)-5-(trifluoromethyl)-1H-pyrrole-2-carboxylic acid amide] was tested. Which inhibition at 3 µM did it give?
**A.** The inhibition at 3 µM was 75 to 95%.

**Q.** Which inhibition at 3 µM does the source give for `Cc1c(-c2ccc(Cl)cc2)c(C(=O)N(C)Cc2cnccn2)n(Cc2ccccc2)c1C(F)(F)F` [SC-146, 1-Benzyl-3-(4-chlorophenyl)-N,4-dimethyl-N-(pyrazin-2-yl-methyl)-5-(trifluoromethyl)-1H-pyrrole-2-carboxylic acid amide] here?
**A.** The inhibition at 3 µM was 75 to 95%.

**Q.** For `Cc1c(-c2ccc(Cl)cc2F)c(C(=O)N2CCOCC2)n(Cc2ccccc2)c1C(F)(F)F` [SC-62, [1-Benzyl-3-(4-chloro-2-fluoro-phenyl)-4-methyl-5-(trifluoromethyl)-1H-pyrrol-2-yl]-morpholin-4-yl-methanone], which inhibition at 3 µM is on record?
**A.** The inhibition at 3 µM was greater than 95%.

**Q.** `CN(CC1CC1)C(=O)c1c(-c2ccc(Cl)cc2)cc(C(F)(F)F)n1Cc1ccccc1` [SC-76, 1-Benzyl-3-(4-chlorophenyl)-N-(cyclopropyl-methyl)-N-methyl-5-(trifluoromethyl)-1H-pyrrole-2-carboxylic acid amide] was tested. Which inhibition at 3 µM did it give?
**A.** Its inhibition at 3 µM is 75 to 95%.
